What was measured:
Assay type in all cases: biochemical
JAK1 = target: T1, JAK1 (Homo sapiens, UniProt P23458); assay: Z'-LYTE kinase assay, JAK1 tyrosine phosphorylation activity; details: read-out: JAK 1 IC50
T1 construct: 5 μl of catalytic domain recombinant Kinase enzyme+Tyr peptide substrate (Invitrogen, Calif.); purchased Invitrogen
Method: (§1) JAK and TYK2 tyrosine phosphorylation activity is measured using the Z′-LYTE™ Technology developed by Invitrogen Corporation (Carlsbad, Calif.). For JAK1, JAK2 and JAK3 the Z′-LYTE™ Kinase Assay Kit-Tyr6 Peptide (part number PV4122) was used. For TYK2 the Z′-LYTE™ Kinase Assay Kit-Tyr6 Peptide (part number PV3192) was used. The Z′-LYTE™ biochemical assay employs a fluorescence resonance energy transfer (FRET) coupled-enzyme format and is based on the differential sensitivity of phosphorylated and non-phosphorylated peptides to proteolitic cleavage. The assay uses a synthetic peptide substrate that is labelled with a donor fluorophore (coumarin) and an acceptor fluorophore (fluorescein) that make up a FRET pair. In the primary reaction (the Kinase Reaction), the kinase transfers the γ-phosphate of ATP to a single tyrosine residue on the substrate, while the presence of a kinase inhibitor in the primary reaction suppresses phosphorylation. In the secondary reaction (the Development Reaction), a site-specific protease (the Development Reagent) is added. The development buffer quenches the Kinase Reaction, while the protease recognizes and cleaves non-phosphorylated Z′-LYTE™ peptide substrate. Cleavage disrupts FRET between the donor and acceptor fluorophores on the non-phosphoryleted substrate, while uncleaved, phosphorylated substrate maintains FRET.
(§2) To test the ability of candidate molecules to inhibit JAK tyrosine phosphorylation activity, molecules are reconstituted in 100% DMSO and serially diluted 1:10 in polypropylene v-bottom microtiter plates. The candidate molecules are then diluted 1:25 into kinase buffer and 2.5 μl transferred into duplicate wells of a 384 well low volume black microtiter assay plate (Corning, USA). The final DMSO concentration in the assay is 1%. The kinase reaction contains 2.5 μl of a candidate molecule, 5 μl of catalytic domain recombinant Kinase enzyme+Tyr peptide substrate (Invitrogen, Calif.) and 2.5 μl ATP (Invitrogen, Calif.). The kinase reaction is allowed to procede for 1 hour at room temperature. The protease reaction is initiated by the addition of 5 μl Development Reagent (Invitrogen, Calif.). After 1 hour incubation at room temperature the fluorescence is measured using a FlexStation plate reader (Molecular Devices, Sunnyvale, Calif.). The reader settings used are as follows: Fluorescence mode, endpoint, top read, excitation 400 nm, emission 445 nm and 520 nm, Auto Cutoff 435 nm and 515 nm, PMT sensitivity high, 6 reads per well. Inhibition of JAK activity is calculated as the percent phosphorylation of substrate in the presence of inhibitor compared to the percent phosphorylation of substrate in the absence of inhibitor. IC50's were derived using Xlfit 4.3 (IDBS, UK), 4 parameter logistic model 205: Y=(A+((B−A)/(1+((C/x)^D)))).

JAK2 = target: T2, JAK2 (Homo sapiens, UniProt O60674); assay: Z'-LYTE kinase assay, JAK2 tyrosine phosphorylation activity
T2 construct: 5 μl of catalytic domain recombinant Kinase enzyme+Tyr peptide substrate (Invitrogen, Calif.); purchased Invitrogen
T2 sequence (O60674 849-1124 limits assumed): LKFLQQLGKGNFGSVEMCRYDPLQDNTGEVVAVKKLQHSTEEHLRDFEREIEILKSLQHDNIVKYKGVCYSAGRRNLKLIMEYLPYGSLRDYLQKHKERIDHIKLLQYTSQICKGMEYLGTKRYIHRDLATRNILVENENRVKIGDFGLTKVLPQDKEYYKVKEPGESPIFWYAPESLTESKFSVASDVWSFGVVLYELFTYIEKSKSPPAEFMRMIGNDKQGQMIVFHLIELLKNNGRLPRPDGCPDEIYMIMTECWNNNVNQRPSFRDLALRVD
Method: as §1, §2

JAK3 = target: T3, JAK3 (Homo sapiens, UniProt P52333); assay: Z'-LYTE kinase assay, JAK3 tyrosine phosphorylation activity
T3 construct: 5 μl of catalytic domain recombinant Kinase enzyme+Tyr peptide substrate (Invitrogen, Calif.); purchased Invitrogen
T3 sequence (P52333 822-1111 limits assumed): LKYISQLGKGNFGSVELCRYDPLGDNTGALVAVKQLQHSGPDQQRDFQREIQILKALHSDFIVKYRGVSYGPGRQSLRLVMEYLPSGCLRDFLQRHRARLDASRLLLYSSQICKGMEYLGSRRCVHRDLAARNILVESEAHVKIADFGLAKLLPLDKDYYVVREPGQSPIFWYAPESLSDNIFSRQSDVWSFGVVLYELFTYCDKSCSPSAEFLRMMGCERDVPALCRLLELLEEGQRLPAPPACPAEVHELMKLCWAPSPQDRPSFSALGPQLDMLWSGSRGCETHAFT
Method: as §1, §2

T1 sequence (P23458 875-1153 limits assumed): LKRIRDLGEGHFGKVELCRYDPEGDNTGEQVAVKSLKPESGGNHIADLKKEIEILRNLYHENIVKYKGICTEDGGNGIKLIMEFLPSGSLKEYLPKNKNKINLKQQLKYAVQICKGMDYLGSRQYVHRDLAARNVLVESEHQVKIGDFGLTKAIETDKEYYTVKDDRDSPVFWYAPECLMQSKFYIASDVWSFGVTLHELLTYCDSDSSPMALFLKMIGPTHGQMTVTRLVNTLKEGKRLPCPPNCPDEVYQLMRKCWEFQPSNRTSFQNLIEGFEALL

| IC50 (JAK1) | IC50 (JAK2) | IC50 (JAK3) | SMILES |
| --- | --- | --- | --- |
| > 1000 nM | 100 to 1000 nM | 10 to 100 nM | NC(=O)c1cnc(Nc2cccc(NC(=O)N3CCOCC3)c2)cc1NCc1cccnc1 [Example 319, N-(3-(5-carbamoyl-4-(pyridin-3-ylmethylamino)pyridin-2-ylamino)phenyl)morpholine-4-carboxamide] |
| > 1000 nM | > 1000 nM | 10 to 100 nM | NC(=O)c1cnc(Nc2ccc(F)c(NC(=O)N3CCCC3)c2)cc1N[C@H](CO)c1ccccc1 [Example 313, (S)-6-(4-fluoro-3-(pyrrolidine-1-carboxamido)phenylamino)-4-(2-hydroxy-1-phenylethylamino)nicotinamide] |
| > 1000 nM | 100 to 1000 nM | 1 to 10 nM | NC(=O)c1cnc(Nc2ccc(F)c(NC(=O)N3CCC3)c2)cc1N[C@H](CO)c1ccccc1 [Example 311, (S)-6-(3-(azetidine-1-carboxamido)-4-fluorophenylamino)-4-(2-hydroxy-1-phenylethylamino)nicotinamide] |
| – | – | < 1 nM | NC(=O)c1cnc(Nc2cccc(NC(=O)N3CC[C@H](F)C3)c2)nc1NCc1ccccc1 [Example 284, (S)-4-(benzylamino)-2-(3-(3-fluoropyrrolidine-1-carboxamido)phenylamino)pyrimidine-5-carboxamide] |
| – | – | < 1 nM | NC(=O)c1cnc(Nc2cccc(NC(=O)N3CC[C@@H](O)C3)c2)nc1NCc1ccccc1 [Example 282, (R)-4-(benzylamino)-2-(3-(3-hydroxypyrrolidine-1-carboxamido)phenylamino)pyrimidine-5-carboxamide] |
| 100 to 1000 nM | 100 to 1000 nM | 10 to 100 nM | CC(=O)Nc1cccc(Nc2cc(N[C@H](CO)c3ccccc3)c(C(N)=O)cn2)c1 [Example 316, (S)-6-(3-acetamidophenylamino)-4-(2-hydroxy-1-phenylethylamino)nicotinamide] |
| > 1000 nM | 100 to 1000 nM | 1 to 10 nM | NC(=O)c1cnc(Nc2cccc(NC(=O)N3CCCC3)c2)cc1NCc1cc(F)cc(F)c1 [Example 341, 4-(3,5-difluorobenzylamino)-6-(3-(pyrrolidine-1-carboxamido)phenylamino)nicotinamide] |
| – | – | 1 to 10 nM | NC(=O)c1cnc(Nc2ccc(F)c(NC(=O)N3CCC3)c2)nc1NCc1ccccc1F [Example 290, 2-(3-(azetidine-1-carboxamido)-4-fluorophenylamino)-4-(2-fluorobenzylamino)pyrimidine-5-carboxamide] |
| – | – | 10 to 100 nM | CC(=O)Nc1cccc(Nc2ncc(C(N)=O)c(Nc3ccc(NC(=O)CC(F)(F)F)cc3)n2)c1 [Example 303, 2-(3-acetamidophenylamino)-4-(4-(3,3,3-trifluoro-propanamido)phenylamino)pyrimidine-5-carboxamide] |
| 100 to 1000 nM | 10 to 100 nM | 1 to 10 nM | NC(=O)c1cnc(Nc2cccc(NC(=O)N3CCOCC3)c2)cc1NCc1cccc(F)c1 [Example 308, N-(3-(5-carbamoyl-4-(3-fluorobenzylamino)pyridin-2-ylamino)phenyl)morpholine-4-carboxamide] |
| – | – | 10 to 100 nM | NC(=O)c1cnc(Nc2cccc(NC(=O)c3ccccn3)c2)nc1NCc1ccccc1F [Example 295, 4-(2-fluorobenzylamino)-2-(3-(picolinamido)-phenylamino)pyrimidine-5-carboxamide] |
| 100 to 1000 nM | 10 to 100 nM | 1 to 10 nM | NC(=O)c1cnc(Nc2cccc(NC(=O)N3CCCC3)c2)cc1NCc1cccc(F)c1 [Example 309, 4-(3-fluorobenzylamino)-6-(3-(pyrrolidine-1-carboxamido)phenylamino)nicotinamide] |
| 100 to 1000 nM | 100 to 1000 nM | 10 to 100 nM | NC(=O)c1cnc(Nc2ccc(F)c(NC(=O)N3CCCC3)c2)cc1NCc1cccc(F)c1 [Example 307] |
| – | – | < 1 nM | NC(=O)c1cnc(Nc2cccc(NC(=O)c3cccnc3)c2)nc1NCc1ccccc1F [Example 296, 4-(2-fluorobenzylamino)-2-(3-(nicotinamido)-phenylamino)pyrimidine-5-carboxamide] |
| – | – | < 1 nM | NC(=O)c1cnc(Nc2cccc(NC(=O)Cc3ccncc3)c2)nc1NCc1ccccc1F [Example 299, 4-(2-fluorobenzylamino)-2-(3-(2-(pyridin-4-yl)acetamido)-phenylamino)pyrimidine-5-carboxamide] |
| > 1000 nM | > 1000 nM | 10 to 100 nM | NC(=O)c1cnc(Nc2ccc(F)c(NC(=O)N3CCC3)c2)cc1NCc1cccnc1 [Example 317, 6-(3-(azetidine-1-carboxamido)-4-fluorophenylamino)-4-(pyridin-3-ylmethylamino)nicotinamide] |
| – | – | < 1 nM | NC(=O)c1cnc(Nc2cccc(NC(=O)N3CC[C@@H](F)C3)c2)nc1NCc1ccccc1 [Example 283, (R)-4-(benzylamino)-2-(3-(3-fluoropyrrolidine-1-carboxamido)phenylamino)pyrimidine-5-carboxamide] |
| > 1000 nM | 100 to 1000 nM | 10 to 100 nM | CN(C)[C@@H]1CCN(C(=O)Nc2cccc(Nc3cc(NCc4cccnc4)c(C(N)=O)cn3)c2)C1 [Example 318, (R)-6-(3-(3-(dimethylamino)pyrrolidine-1-carboxamido)phenylamino)-4-(pyridin-3-ylmethylamino)nicotinamide] |
| – | – | 100 to 1000 nM | NC(=O)c1cnc(Nc2cccc(NC(=O)N3CCCC3)c2)nc1NCC1CCCC1 [Example 281] |
| > 1000 nM | > 1000 nM | > 1000 nM | CNC(=O)c1cnc(Nc2cccc(NC(C)=O)c2)cc1NCc1ccccc1 [Example 339, 6-(3-acetamidophenylamino)-4-(benzylamino)-N-methylnicotinamide] |
| 100 to 1000 nM | 100 to 1000 nM | 1 to 10 nM | CC(=O)Nc1cccc(Nc2cc(NCc3cccc(F)c3)c(C(N)=O)cn2)c1 [Example 310, 6-(3-acetamidophenylamino)-4-(3-fluorobenzylamino)nicotinamide] |
| – | – | 10 to 100 nM | NC(=O)c1cnc(Nc2cccc(NC(=O)N3CC[C@@H](F)C3)c2)nc1NCc1ccccc1F [Example 289, (R)-4-(2-fluorobenzylamino)-2-(3-(3-fluoropyrrolidine-1-carboxamido)phenylamino)pyrimidine-5-carboxamide] |
| – | – | < 1 nM | CC(=O)Nc1cccc(Nc2ncc(C(N)=O)c(NCC3CCCC3)n2)c1 [Example 280, 2-(3-acetamidophenylamino)-4-(cyclopentylmethylamino)pyrimidine-5-carboxamide] |
| – | – | 1 to 10 nM | NC(=O)c1cnc(Nc2cccc(NC(=O)Cc3cccnc3)c2)nc1NCc1ccccc1F [Example 297, 4-(2-fluorobenzylamino)-2-(3-(2-(pyridin-3-yl)acetamido)-phenylamino)pyrimidine-5-carboxamide] |
| – | – | 1 to 10 nM | CC(=O)Nc1cccc(Nc2ncc(C(N)=O)c(Nc3ccc(NC(=O)CC#N)cc3)n2)c1 [Example 301, 2-(3-acetamidophenylamino)-4-(4-(2-cyanoacetamido)-phenylamino)pyrimidine-5-carboxamide] |
| – | – | 1 to 10 nM | NC(=O)c1cnc(Nc2cccc(NC(=O)c3cccc(O)n3)c2)nc1NCc1ccccc1F [Example 298, 4-(2-fluorobenzylamino)-2-(3-(6-hydroxypicolinamido)-phenylamino)pyrimidine-5-carboxamide] |
| – | – | 1 to 10 nM | NC(=O)c1cnc(Nc2ccc(F)c(NC(=O)N3CCCC3)c2)nc1NCc1ccccc1F [Example 288, 2-(4-fluoro-3-(pyrrolidine-1-carboxamido)phenylamino)-4-(2-fluorobenzylamino)pyrimidine-5-carboxamide] |
| – | – | < 1 nM | NC(=O)c1cnc(Nc2cccc(NC(=O)Cc3ccccn3)c2)nc1NCc1ccccc1F [Example 300, 4-(2-fluorobenzylamino)-2-(3-(2-(pyridin-2-yl)acetamido)-phenylamino)pyrimidine-5-carboxamide] |
| – | – | 10 to 100 nM | CC(=O)Nc1cccc(Nc2ncc(C(N)=O)c(Nc3ccc(NC(=O)C4(C#N)CC4)cc3)n2)c1 [Example 302, 2-(3-acetamidophenylamino)-4-(4-(1-cyanocyclopropane-carboxamido)phenylamino)pyrimidine-5-carboxamide] |

Reference: patent US8853230B2, “Inhibitors of JAK” (Portola Pharmaceuticals, Inc., priority 2009, dated 2014)
